# Measurements as given in BindingDB's records for doi:10.1016/0960-894X(95)00250-W (1995).
# Biological target: Receptor-type tyrosine-protein phosphatase C (Homo sapiens) (UniProt P08575)
# Assay: In vitro inhibitory activity against recombinant CD45 protein tyrosine phosphatase
# Sequence of Receptor-type tyrosine-protein phosphatase C (Homo sapiens) (P08575 whole entry, looked up): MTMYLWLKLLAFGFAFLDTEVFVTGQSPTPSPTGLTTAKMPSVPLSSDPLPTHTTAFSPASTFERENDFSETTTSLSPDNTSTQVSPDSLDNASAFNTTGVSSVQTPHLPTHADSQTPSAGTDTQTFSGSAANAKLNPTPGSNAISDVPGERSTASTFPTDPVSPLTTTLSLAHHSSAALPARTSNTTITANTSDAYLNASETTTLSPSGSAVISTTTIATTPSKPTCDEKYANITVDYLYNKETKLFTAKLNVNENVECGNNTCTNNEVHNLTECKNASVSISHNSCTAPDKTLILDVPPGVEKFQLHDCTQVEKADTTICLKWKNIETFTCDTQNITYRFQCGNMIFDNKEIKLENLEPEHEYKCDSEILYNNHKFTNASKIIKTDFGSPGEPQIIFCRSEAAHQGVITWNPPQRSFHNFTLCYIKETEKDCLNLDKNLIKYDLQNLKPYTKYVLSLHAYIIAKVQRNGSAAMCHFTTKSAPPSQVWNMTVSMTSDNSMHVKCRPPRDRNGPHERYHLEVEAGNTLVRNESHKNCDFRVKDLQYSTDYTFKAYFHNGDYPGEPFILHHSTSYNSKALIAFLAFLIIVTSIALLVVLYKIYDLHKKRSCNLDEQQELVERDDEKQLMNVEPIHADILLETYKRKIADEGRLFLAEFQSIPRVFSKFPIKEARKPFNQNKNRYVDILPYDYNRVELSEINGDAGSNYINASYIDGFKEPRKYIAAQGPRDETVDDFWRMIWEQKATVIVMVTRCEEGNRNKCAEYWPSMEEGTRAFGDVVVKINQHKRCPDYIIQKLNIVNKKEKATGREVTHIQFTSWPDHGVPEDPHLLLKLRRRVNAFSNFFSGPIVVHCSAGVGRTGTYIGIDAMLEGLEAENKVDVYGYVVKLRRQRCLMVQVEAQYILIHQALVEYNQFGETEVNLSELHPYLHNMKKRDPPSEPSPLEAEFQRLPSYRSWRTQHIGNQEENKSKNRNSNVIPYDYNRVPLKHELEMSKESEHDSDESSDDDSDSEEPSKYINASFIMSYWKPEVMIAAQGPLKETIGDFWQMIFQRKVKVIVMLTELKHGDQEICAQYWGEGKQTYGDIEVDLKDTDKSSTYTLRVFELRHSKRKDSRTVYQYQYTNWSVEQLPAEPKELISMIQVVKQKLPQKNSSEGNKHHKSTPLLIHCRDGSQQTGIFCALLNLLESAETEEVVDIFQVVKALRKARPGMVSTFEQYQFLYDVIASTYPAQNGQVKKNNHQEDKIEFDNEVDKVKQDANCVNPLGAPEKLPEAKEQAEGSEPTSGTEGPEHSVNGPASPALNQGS
row,Compound,IC50 [µM]
1,O=C1c2ccccc2-c2c3c(cc4ccnc1c24)OCO3 [Liriodenine],182
2,COc1cc2c(cc1OC)-c1c(OC)c(OC)cc3c1[C@H](C2)N(C)CC3,88
3,c1ccc2c(c1)C[C@H]1NCCc3cc4c(c-2c31)OCO4 [(-)-anonaine],17
4,"CN1CCc2cc3c(c4c2C1Cc1ccccc1-4)OCO3 (stereo not given) [7-Methyl-6,7,7a,8-tetrahydro-5H-benzo[g][1,3]dioxolo[4',5':4,5]benzo[1,2,3-de]quinoline]",107
5,"COc1cc2c3c(c1OC)-c1ccccc1C[C@@H]3NCC2 [(S)-1,2-Dimethoxy-5,6,6a,7-tetrahydro-4H-dibenzo[de,g]quinoline]",5.3
